Measured values taken from ChEMBL document CHEMBL3286225, “Novel carboline derivatives as potent antifungal lead compounds: design, synthesis, and biological evaluation” (ACS Med Chem Lett, 2014).
In brackets after ≈: the same amount, converted by molar mass.

Key:
Assay type in all cases: functional
Candida albicans = assay: Antifungal activity against fluconazole-sensitive Candida albicans SC5314 after 24 hrs by serial dilution method; conditions: SC5314, 24 h
Candida parapsilosis = assay: Antifungal activity against Candida parapsilosis ATCC 22019 after 24 hrs by serial dilution method; conditions: Lodderomyces parapsilosis, ATCC 22019, 24 h
Cryptococcus neoformans = assay: Antifungal activity against Cryptococcus neoformans 32609 after 72 hrs by serial dilution method; conditions: Cryptococcus neoformans, 32609, 72 h
Nakaseomyces glabratus = assay: Antifungal activity against Candida glabrata 537 after 24 hrs by serial dilution method; conditions: Nakaseomyces glabratus, 537, 24 h
Aspergillus fumigatus = assay: Antifungal activity against Aspergillus fumigatus 07544 after 7 days by serial dilution method; conditions: Aspergillus fumigatus, 07544, 168 h
Trichophyton rubrum = assay: Antifungal activity against Trichophyton rubrum Cmccftla after 7 days by serial dilution method; conditions: 168 h
Nannizzia gypsea = assay: Antifungal activity against Microsporum gypseum Cmccfmza after 7 days by serial dilution method; conditions: 168 h
Candida tropicalis = assay: Antifungal activity against Candida tropicalis after 7 days by serial dilution method; conditions: 168 h
Pichia kudriavzevii = assay: Antifungal activity against Candida krusei 0710397 after 7 days by serial dilution method; conditions: Pichia kudriavzevii, 0710397, 168 h

SMILES	MIC80 (Candida albicans) [µg/mL]	MIC80 (Candida parapsilosis) [µg/mL]	MIC80 (Cryptococcus neoformans) [µg/mL]	MIC80 (Nakaseomyces glabratus) [µg/mL]	MIC80 (Aspergillus fumigatus) [µg/mL]	MIC80 (Trichophyton rubrum) [µg/mL]	MIC80 (Nannizzia gypsea) [µg/mL]	MIC80 (Candida tropicalis) [µg/mL]	MIC80 (Pichia kudriavzevii) [µg/mL]
COc1ccc2c(c1)c1c(n2CCCOc2ccc(Cl)cc2)CCN(C)C1	32 (≈ 83.1 µM)	32 (≈ 83.1 µM)	8 (≈ 20.8 µM)	> 64	32 (≈ 83.1 µM)	8 (≈ 20.8 µM)	8 (≈ 20.8 µM)		
CN1CCc2c(c3cc(Cl)ccc3n2CCCOc2ccc(Cl)cc2)C1	64 (≈ 164 µM)	16 (≈ 41.1 µM)	8 (≈ 20.5 µM)	16 (≈ 41.1 µM)	> 64	> 64	16 (≈ 41.1 µM)		
CN1CCc2c(c3cc(Cl)ccc3n2Cc2ccc(Cl)cc2)C1	64 (≈ 185 µM)	64 (≈ 185 µM)	16 (≈ 46.3 µM)	16 (≈ 46.3 µM)	64 (≈ 185 µM)	64 (≈ 185 µM)	16 (≈ 46.3 µM)		
CCCN1CCc2c(c3cc(Cl)ccc3n2CCCOc2ccc(Cl)cc2)C1	> 64	64 (≈ 153 µM)	16 (≈ 38.3 µM)	16 (≈ 38.3 µM)	> 64	> 64	16 (≈ 38.3 µM)		
CN1CCc2c(c3cc(Cl)ccc3n2C(=O)c2ccccc2Br)C1	> 64	64 (≈ 159 µM)	> 64	> 64	> 64	> 64	> 64		
Cc1ccc2c3c(n(CCCOc4ccc(Cl)cc4)c2c1)CCN(C)C3	32 (≈ 86.7 µM)	16 (≈ 43.4 µM)	8 (≈ 21.7 µM)	16 (≈ 43.4 µM)	16 (≈ 43.4 µM)	8 (≈ 21.7 µM)	8 (≈ 21.7 µM)		
CN1CCc2c(c3cc(Cl)ccc3n2C(=O)c2cccc(Cl)c2)C1	> 64	64 (≈ 178 µM)	32 (≈ 89.1 µM)	32 (≈ 89.1 µM)	> 64	> 64	> 64		
CN1CCc2c(c3cc(Cl)ccc3n2CC#N)C1	> 64	> 64	64 (≈ 246 µM)	> 64	> 64	> 64	64 (≈ 246 µM)		
Fc1ccc(OCCCCCn2c3c(c4cc(F)ccc42)CNCC3)cc1	16 (≈ 43.2 µM)	16 (≈ 43.2 µM)	16 (≈ 43.2 µM)			32 (≈ 86.4 µM)	8 (≈ 21.6 µM)	4 (≈ 10.8 µM)	4 (≈ 10.8 µM)
Fc1cc(F)c(OCCCn2c3c(c4cc(F)ccc42)CNCC3)c(F)c1	8 (≈ 21.1 µM)	4 (≈ 10.6 µM)	4 (≈ 10.6 µM)			4 (≈ 10.6 µM)	4 (≈ 10.6 µM)	16 (≈ 42.3 µM)	4 (≈ 10.6 µM)

Now from value to molecule:

MIC80 (Candida albicans) [µg/mL]	MIC80 (Candida parapsilosis) [µg/mL]	MIC80 (Cryptococcus neoformans) [µg/mL]	MIC80 (Nakaseomyces glabratus) [µg/mL]	MIC80 (Aspergillus fumigatus) [µg/mL]	MIC80 (Trichophyton rubrum) [µg/mL]	MIC80 (Nannizzia gypsea) [µg/mL]	MIC80 (Candida tropicalis) [µg/mL]	MIC80 (Pichia kudriavzevii) [µg/mL]	SMILES
8 (≈ 23.4 µM)	16 (≈ 46.7 µM)	8 (≈ 23.4 µM)			8 (≈ 23.4 µM)	8 (≈ 23.4 µM)	16 (≈ 46.7 µM)	4 (≈ 11.7 µM)	Fc1ccc(OCCCn2c3c(c4cc(F)ccc42)CNCC3)cc1
8 (≈ 23.6 µM)	4 (≈ 11.8 µM)	4 (≈ 11.8 µM)			2 (≈ 5.91 µM)	4 (≈ 11.8 µM)	16 (≈ 47.3 µM)	4 (≈ 11.8 µM)	Cc1ccc(OCCCn2c3c(c4cc(F)ccc42)CNCC3)cc1
16 (≈ 44.9 µM)	16 (≈ 44.9 µM)	16 (≈ 44.9 µM)			16 (≈ 44.9 µM)	8 (≈ 22.4 µM)	16 (≈ 44.9 µM)	4 (≈ 11.2 µM)	Fc1ccc(OCCCCn2c3c(c4cc(F)ccc42)CNCC3)cc1
8 (≈ 19.8 µM)	64 (≈ 159 µM)	4 (≈ 9.92 µM)			8 (≈ 19.8 µM)	2 (≈ 4.96 µM)	16 (≈ 39.7 µM)	4 (≈ 9.92 µM)	Fc1ccc2c(c1)c1c(n2CCCOc2ccc(Br)cc2)CCNC1
32 (≈ 88.8 µM)	4 (≈ 11.1 µM)	32 (≈ 88.8 µM)			32 (≈ 88.8 µM)	16 (≈ 44.4 µM)	16 (≈ 44.4 µM)	4 (≈ 11.1 µM)	Fc1ccc2c(c1)c1c(n2CCCOc2cccc(F)c2F)CCNC1
8 (≈ 24.7 µM)	> 64	8 (≈ 24.7 µM)			8 (≈ 24.7 µM)	4 (≈ 12.3 µM)	64 (≈ 197 µM)	16 (≈ 49.3 µM)	Fc1ccc2c(c1)c1c(n2CCCOc2ccccc2)CCNC1
32 (≈ 89.2 µM)	64 (≈ 178 µM)	16 (≈ 44.6 µM)			32 (≈ 89.2 µM)	16 (≈ 44.6 µM)	64 (≈ 178 µM)	64 (≈ 178 µM)	Fc1ccc2c(c1)c1c(n2CCCOc2ccccc2Cl)CCNC1
4 (≈ 11.1 µM)	64 (≈ 178 µM)	16 (≈ 44.4 µM)			8 (≈ 22.2 µM)	2 (≈ 5.55 µM)	16 (≈ 44.4 µM)	4 (≈ 11.1 µM)	Fc1ccc(F)c(OCCCn2c3c(c4cc(F)ccc42)CNCC3)c1
4 (≈ 9.92 µM)	4 (≈ 9.92 µM)	4 (≈ 9.92 µM)			8 (≈ 19.8 µM)	4 (≈ 9.92 µM)	16 (≈ 39.7 µM)	4 (≈ 9.92 µM)	Fc1ccc(OCCCn2c3c(c4cc(Br)ccc42)CNCC3)cc1
8 (≈ 22.6 µM)	> 64	8 (≈ 22.6 µM)			8 (≈ 22.6 µM)	4 (≈ 11.3 µM)	> 64	16 (≈ 45.1 µM)	COc1ccc(OCCCn2c3c(c4cc(F)ccc42)CNCC3)cc1
